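Results reflect a 48-hour exposure of cells in 96-well plates to compound at five concentrations. GI50: concentration for 50% inhibition of growth. TGI is the concentration that stops growth completely.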
Tests used:
Assay in all cases: NCI tumour cell line growth inhibition, 48 h
COLO 205 colon = system: COLO 205 colon
786-0 renal = system: 786-0 renal
SW-620 colon = system: SW-620 colon
OVCAR-8 ovarian = system: OVCAR-8 ovarian
BT-549 breast = system: BT-549 breast
DU-145 prostate = system: DU-145 prostate
LOX IMVI melanoma = system: LOX IMVI melanoma
SNB-75 CNS = system: SNB-75 CNS
SK-MEL-2 melanoma = system: SK-MEL-2 melanoma
IGROV1 ovarian = system: IGROV1 ovarian

Cc1[nH]n(-c2ccccc2)c(=O)c1C(=O)c1ccccc1
GI50 (COLO 205 colon): > 25 µM | TGI (COLO 205 colon): > 25 µM | GI50 (786-0 renal): > 25 µM | TGI (786-0 renal): > 25 µM | GI50 (SW-620 colon): > 25 µM | TGI (SW-620 colon): > 25 µM | GI50 (OVCAR-8 ovarian): > 25 µM | TGI (OVCAR-8 ovarian): > 25 µM | GI50 (BT-549 breast): > 25 µM | TGI (BT-549 breast): > 25 µM | GI50 (DU-145 prostate): > 25 µM | TGI (DU-145 prostate): > 25 µM | GI50 (LOX IMVI melanoma): > 25 µM | TGI (LOX IMVI melanoma): > 25 µM | GI50 (SNB-75 CNS): > 25 µM | TGI (SNB-75 CNS): > 25 µM | GI50 (SK-MEL-2 melanoma): > 25 µM | TGI (SK-MEL-2 melanoma): > 25 µM | GI50 (IGROV1 ovarian): > 15.4 µM | TGI (IGROV1 ovarian): > 25 µM

N#Cc1ccc2c(c1)C(=O)c1c-2n(CCCN=[N+]=[N-])c(=O)c2cc([N+](=O)[O-])ccc12
GI50 (COLO 205 colon): > 50 µM | TGI (COLO 205 colon): > 50 µM | GI50 (786-0 renal): 23 µM | TGI (786-0 renal): > 50 µM | GI50 (SW-620 colon): 3.5 µM | TGI (SW-620 colon): > 50 µM | GI50 (OVCAR-8 ovarian): > 50 µM | TGI (OVCAR-8 ovarian): > 50 µM | GI50 (BT-549 breast): 5.49 µM | TGI (BT-549 breast): > 50 µM | GI50 (DU-145 prostate): 7.16 µM | TGI (DU-145 prostate): > 50 µM | GI50 (LOX IMVI melanoma): 4.85 µM | TGI (LOX IMVI melanoma): > 50 µM | GI50 (SNB-75 CNS): 17.4 µM | TGI (SNB-75 CNS): > 50 µM | GI50 (SK-MEL-2 melanoma): > 50 µM | TGI (SK-MEL-2 melanoma): > 50 µM | GI50 (IGROV1 ovarian): 12.4 µM | TGI (IGROV1 ovarian): > 50 µM

O[C@H](CN1CC1)[C@@H](O)CN1CC1
GI50 (COLO 205 colon): 12.4 µM | TGI (COLO 205 colon): 25.5 µM | GI50 (786-0 renal): 3.42 µM | TGI (786-0 renal): 13.5 µM | GI50 (SW-620 colon): 4.61 µM | TGI (SW-620 colon): > 100 µM | GI50 (OVCAR-8 ovarian): 3.75 µM | TGI (OVCAR-8 ovarian): > 100 µM | GI50 (BT-549 breast): 12.6 µM | TGI (BT-549 breast): 60.9 µM | GI50 (DU-145 prostate): 3.25 µM | TGI (DU-145 prostate): 26.8 µM | GI50 (LOX IMVI melanoma): 2.81 µM | TGI (LOX IMVI melanoma): 28.4 µM | GI50 (SNB-75 CNS): 2.94 µM | TGI (SNB-75 CNS): 21.4 µM | GI50 (SK-MEL-2 melanoma): 41 µM | TGI (SK-MEL-2 melanoma): > 100 µM | GI50 (IGROV1 ovarian): 10.7 µM | TGI (IGROV1 ovarian): 33.3 µM

COc1cccc2ccc3c(c12)C(=O)OC31CCc2c(C)cccc21 (configuration not stated)
TGI (COLO 205 colon): > 46.4 µM | TGI (786-0 renal): > 46.4 µM | TGI (SW-620 colon): > 46.4 µM | TGI (OVCAR-8 ovarian): > 46.4 µM | TGI (BT-549 breast): > 100 µM | TGI (DU-145 prostate): > 100 µM | TGI (LOX IMVI melanoma): > 46.4 µM | TGI (SNB-75 CNS): 45.1 µM | TGI (SK-MEL-2 melanoma): > 46.4 µM | TGI (IGROV1 ovarian): > 46.4 µM

C=C(C)[C@@H]1CC[C@]2(C)[C@H](CC=C3[C@@H]4[C@H](C)[C@@H](C)CC[C@]4(CO)CC[C@]32C)[C@@]1(C)CCCN
GI50 (COLO 205 colon): 0.899 µM | TGI (COLO 205 colon): 1.94 µM | GI50 (786-0 renal): 0.841 µM | TGI (786-0 renal): 1.58 µM | GI50 (SW-620 colon): 1.01 µM | TGI (SW-620 colon): 2.11 µM | GI50 (OVCAR-8 ovarian): 1.16 µM | TGI (OVCAR-8 ovarian): 2.8 µM | GI50 (BT-549 breast): 2.56 µM | TGI (BT-549 breast): 9.23 µM | GI50 (DU-145 prostate): 1.21 µM | TGI (DU-145 prostate): 3.01 µM | GI50 (LOX IMVI melanoma): 0.859 µM | TGI (LOX IMVI melanoma): 1.57 µM | GI50 (SNB-75 CNS): 0.848 µM | TGI (SNB-75 CNS): 3.62 µM | GI50 (SK-MEL-2 melanoma): 1.73 µM | TGI (SK-MEL-2 melanoma): 5.04 µM | GI50 (IGROV1 ovarian): 0.885 µM | TGI (IGROV1 ovarian): 1.67 µM

C=C1C[C@@H]2[C@H](CC[C@]3(C)C(=O)CC[C@@H]23)[C@@]2(C)C=CC(=O)C=C12
GI50 (COLO 205 colon): 20.3 µM | TGI (COLO 205 colon): 41 µM | GI50 (786-0 renal): 36.9 µM | TGI (786-0 renal): > 100 µM | GI50 (SW-620 colon): 34.7 µM | TGI (SW-620 colon): > 100 µM | GI50 (OVCAR-8 ovarian): 6.93 µM | TGI (OVCAR-8 ovarian): > 24 µM | GI50 (BT-549 breast): 28.9 µM | TGI (BT-549 breast): > 100 µM | GI50 (DU-145 prostate): > 65.8 µM | TGI (DU-145 prostate): > 100 µM | GI50 (LOX IMVI melanoma): 19.2 µM | TGI (LOX IMVI melanoma): 45.5 µM | GI50 (SNB-75 CNS): 30 µM | TGI (SNB-75 CNS): > 100 µM | TGI (SK-MEL-2 melanoma): > 28.3 µM | GI50 (IGROV1 ovarian): 34.4 µM | TGI (IGROV1 ovarian): > 100 µM

N#CC1CCc2c(c(-c3cn[nH]c3C(F)(F)F)nc3c(F)cc4[nH]ncc4c23)C1 (configuration not stated)
GI50 (COLO 205 colon): 4.23 µM | TGI (COLO 205 colon): 16.1 µM | GI50 (786-0 renal): 10.9 µM | TGI (786-0 renal): 59.4 µM | GI50 (SW-620 colon): 3.47 µM | TGI (SW-620 colon): 38 µM | GI50 (OVCAR-8 ovarian): 13.7 µM | TGI (OVCAR-8 ovarian): > 100 µM | GI50 (BT-549 breast): 3.16 µM | TGI (BT-549 breast): 12.9 µM | GI50 (DU-145 prostate): 9.06 µM | TGI (DU-145 prostate): 80.3 µM | GI50 (LOX IMVI melanoma): 3.45 µM | TGI (LOX IMVI melanoma): 15.3 µM | GI50 (SNB-75 CNS): 3.38 µM | TGI (SNB-75 CNS): 8.96 µM | GI50 (SK-MEL-2 melanoma): 2.4 µM | TGI (SK-MEL-2 melanoma): 6.78 µM | GI50 (IGROV1 ovarian): 2.46 µM | TGI (IGROV1 ovarian): 8.79 µM

S=c1[nH]nc(SCc2ccccc2Cl)c2[nH]cnc12
TGI (COLO 205 colon): > 100 µM | TGI (786-0 renal): > 100 µM | TGI (SW-620 colon): > 100 µM | TGI (OVCAR-8 ovarian): > 100 µM | TGI (BT-549 breast): > 100 µM | TGI (DU-145 prostate): > 100 µM | TGI (LOX IMVI melanoma): > 100 µM | TGI (SNB-75 CNS): > 100 µM | TGI (SK-MEL-2 melanoma): > 100 µM | TGI (IGROV1 ovarian): > 100 µM

COc1ccc(S(=O)(=O)n2c3ccccc3n3ncc(-c4nnc(C)o4)c23)cc1
GI50 (COLO 205 colon): 0.376 µM | TGI (COLO 205 colon): 17.1 µM | GI50 (786-0 renal): 0.688 µM | TGI (786-0 renal): > 71.3 µM | GI50 (SW-620 colon): 0.394 µM | TGI (SW-620 colon): > 100 µM | GI50 (OVCAR-8 ovarian): 1.27 µM | TGI (OVCAR-8 ovarian): > 100 µM | GI50 (BT-549 breast): 0.516 µM | TGI (BT-549 breast): 20 µM | GI50 (DU-145 prostate): 0.916 µM | TGI (DU-145 prostate): > 75.3 µM | GI50 (LOX IMVI melanoma): 0.561 µM | TGI (LOX IMVI melanoma): 26.1 µM | GI50 (SNB-75 CNS): 0.211 µM | TGI (SNB-75 CNS): 0.937 µM | GI50 (SK-MEL-2 melanoma): 0.815 µM | TGI (SK-MEL-2 melanoma): 82.1 µM | GI50 (IGROV1 ovarian): 0.634 µM | TGI (IGROV1 ovarian): > 67.1 µM

O=S1(=O)CC(Br)C(Br)C1 (configuration not stated)
GI50 (COLO 205 colon): 1.61 µM | TGI (COLO 205 colon): 3.17 µM | GI50 (786-0 renal): 10.5 µM | TGI (786-0 renal): 25.5 µM | GI50 (OVCAR-8 ovarian): 4.85 µM | TGI (OVCAR-8 ovarian): 18.4 µM | GI50 (BT-549 breast): 5.4 µM | TGI (BT-549 breast): 18.5 µM | GI50 (DU-145 prostate): 4.21 µM | TGI (DU-145 prostate): 15.9 µM | GI50 (LOX IMVI melanoma): 0.628 µM | TGI (LOX IMVI melanoma): 10 µM | GI50 (SNB-75 CNS): 5.25 µM | TGI (SNB-75 CNS): 19.1 µM | GI50 (SK-MEL-2 melanoma): 8.74 µM | TGI (SK-MEL-2 melanoma): 28.6 µM | GI50 (IGROV1 ovarian): 10.6 µM | TGI (IGROV1 ovarian): 28.6 µM

Reference: PubChem BioAssay (NCI)
